Where a name gives a salt, the structure may show the parent alone.
Biological target: T1, Serotonin receptor 5ht1b (Homo sapiens, UniProt P28222)
T1 construct: expressed in transfected cells
Assay: PDSP primary radioligand binding assay
Settings: compound 10 μM
Experimental: Primary and secondary radioligand binding assays are performed. In general, the primary assay is run at very high ligand (compound) concentration as a broad screen to determine whether a compound binds to a particular receptor. If greater than 50% inhibition at 10 μM (high concentration of compound) at a particular receptor is determined, a secondary assay is performed on that receptor. Data from the secondary assay is the binding affinity (Ki value).
A solution of the compound to be tested is prepared as a 1 mg/ml stock in Standard Binding Buffer or dimethyl sulfoxide (DMSO) according to its solubility. A similar stock of a reference compound (positive control) is also prepared.
Radioligand (radioligands are presented in Table 39) is diluted to five times the assay concentration (assay concentrations are presented in Table 39) in Standard Binding Buffer. Typically, the assay concentration of radioligand is a value between one half the KD and the KD of a particular radioligand at its target. Aliquots (50 μL) of radioligand are dispensed into the wells of a 96-well plate (see FIG. 11) containing 100 μL of Standard Binding Buffer (Table 40). Then, duplicate 50 μL aliquots of the test and reference compound dilutions are added (see FIG. 11). According to FIG. 11, increasing concentrations (from left to right) of reference or test compound (diluted in buffer) are added (50 μL aliquots, in duplicate) from 5× stock solutions to wells containing 50 μL of 5× radioligand (fixed concentration, prepared in buffer) and 100 μL of buffer. Finally, 50 μL of receptor-containing membrane homogenate (5× suspension in buffer) are added to achieve a final assay volume of 250 μL. Final concentrations of reference or test compound are listed above the columns in FIG. 11.
Finally, crude membrane fractions of cells expressing recombinant target (prepared from 10 cm plates by harvesting phosphate buffered saline (PBS)-rinsed monolayers, resuspending and lysing in chilled, hypotonic 50 mM Tris-HCl, pH 7.4, centrifuging at 20,000×g, decanting the supernatant and storing at −80° C.; typically, one 10 cm plate provides sufficient material for 24 wells) are resuspended in 3 mL of chilled Standard Binding Buffer and homogenized by several passages through a 26 gauge needle, and then 50 μL are dispensed into each well.
The 250 μL reactions are incubated at room temperature and shielded from light (to prevent photolysis of light-sensitive ligands) for 1.5 hours, then harvested by rapid filtration onto Whatman GF/B glass fiber filters pre-soaked with 0.3% polyethyleneimine using a 96-well Brandel harvester. Four rapid 500 μL washes are performed with chilled Standard Binding Buffer to reduce non-specific binding. Filters are placed in 6 mL scintillation tubes and allowed to dry overnight. The next day, 4 mL of EcoScint scintillation cocktail (National Diagnostics) are added to each tube. The tubes are capped, labeled, and counted by liquid scintillation counting. For higher throughput assays, bound radioactivity is harvested onto 0.3% polyethyleneimine-treated, 96-well filter mats using a 96-well Filtermate harvester. The filter mats are dried, then scintillant is melted onto the filters, and the radioactivity retained on the filters is counted in a Microbeta scintillation counter.
Raw data (dpm) representing total radioligand binding (i.e., specific+non-specific binding) are plotted as a function of the logarithm of the molar concentration of the competitor (i.e., test or reference compound). […]

T1 sequence (P28222 whole entry): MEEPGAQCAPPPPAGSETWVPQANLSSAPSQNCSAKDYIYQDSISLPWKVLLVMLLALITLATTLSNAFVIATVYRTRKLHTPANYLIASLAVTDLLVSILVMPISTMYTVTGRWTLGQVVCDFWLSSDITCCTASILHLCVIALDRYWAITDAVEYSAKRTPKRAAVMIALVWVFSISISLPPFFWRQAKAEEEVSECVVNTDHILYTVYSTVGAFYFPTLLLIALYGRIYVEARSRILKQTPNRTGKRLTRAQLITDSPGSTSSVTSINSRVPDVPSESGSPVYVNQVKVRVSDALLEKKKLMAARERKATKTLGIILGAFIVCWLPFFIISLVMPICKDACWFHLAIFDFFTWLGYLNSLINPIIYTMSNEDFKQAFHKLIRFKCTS

- mean percentage inhibition, Serotonin receptor 5ht1b (n=4, hydrochloride, 10 µM): 47%
- inhibition at 10 µM (n=4, read-out: mean percentage inhibition, Serotonin receptor 5ht1b): < 50%
Structure (SMILES): CCCOc1cc2c(cn1)[nH]c1ccncc12 [Compound 2, 8-Propoxypyridino[4′,3′-5,4]pyrrolo[3,2-c]pyridine hydrochloride]

From patent publication US8268854B2, “Aza-beta-carbolines and methods of using same” (The UWM Research Foundation, Inc., priority 2008, dated 2012)
